These results are taken from patent publication US9670227B2, “Thienopyrimidine derivatives, a process for their preparation and pharmaceutical compositions containing them” (LES LABORATOIRES SERVIER, priority 2013, dated 2017).

One assay deals with Mcl-1 protein (UniProtKB primary accession number: Q07820) (Homo sapiens, UniProt Q07820). Put plainly: Inhibition of Mcl-1 by fluorescence polarisation, Method 1. It counts as binding. The following applies: for IC50: read-out: IC50 (M) Mcl-1 FP; for percentage fluorescence polarisation inhibition, Mcl-1 FP: partial inhibitors, @ 10 uM test compound. In a few lines:
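Fluorescence polarisation competition with an 11-point compound dilution series (final DMSO 5%). Mcl-1 protein at 5 nM and fluorescein-labelled ligand at 1 nM (final) in 10 mM HEPES, 150 mM NaCl, 0.05% Tween 20, pH 7.4.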

Assay [1] has as its system H929 multiple myeloma tumour line. Put plainly: In vitro cytotoxicity, Microculture Tetrazolium Assay. It counts as cell-based. The conditions noted are these: Homo sapiens, NCI-H929, 48 h, H929 cells, 48 hours exposure, read-out: IC50 (μM) MTT H929. The method, then:
The cytotoxicity studies were carried out on the H929 multiple myeloma tumour line.
The cells are distributed onto microplates and exposed to the test compounds for 48 hours.

The test system of assay [2] is AMO-1 multiple myeloma cells. The assay can be described thus: Quantification of the cleaved form of PARP in vivo (MSD ELISA, tumour lysates). Also noted: species or system mice (SCID strain). The following applies: activation factor: cleaved PARP in treated mice / control mice, AMO-1 xenograft in SCID mice, intraveinous or oral routes. The method, then:
The ability of the compounds of the invention to induce apoptosis, by measuring cleaved PARP levels, is evaluated in a xenograft model of AMO-1 multiple myeloma cells. 1.10^7 AMO-1 cells are grafted sub-cutaneously into immunosuppressed mice (SCID strain). 12 to 14 days after the graft, the animals are treated by intraveinous or oral routes with the various compounds. After treatment, the tumour masses are recovered and lysed, and the cleaved form of PARP is quantified in the tumour lysates.
The quantification is carried out using the “Meso Scale Discovery (MSD) ELISA platform” test, which specifically assays the cleaved form of PARP. It is expressed in the form of an activation factor corresponding to the ratio between the quantity of cleaved PARP in the treated mice divided by the quantity of cleaved PARP in the control mice.
(An ELISA detects its analyte on a solid surface through an enzyme-linked reagent.)

The mark [3] stands for this setting: fluorescence polarisation test, Method 2 values are underlined in the patent (underlining not visible here).
[4] abbreviates: fluorescence polarisation, Method 1, or Method 2.
[5] abbreviates: fluorescence polarisation test, Method 1, or Method 2 where the value is underlined (underlining not visible).

Read-outs that look alike come from different tables or passages of the source.

As usually defined, the IC50 is the concentration that inhibits the measured activity by half.

Chain of Mcl-1 protein (Q07820 whole entry): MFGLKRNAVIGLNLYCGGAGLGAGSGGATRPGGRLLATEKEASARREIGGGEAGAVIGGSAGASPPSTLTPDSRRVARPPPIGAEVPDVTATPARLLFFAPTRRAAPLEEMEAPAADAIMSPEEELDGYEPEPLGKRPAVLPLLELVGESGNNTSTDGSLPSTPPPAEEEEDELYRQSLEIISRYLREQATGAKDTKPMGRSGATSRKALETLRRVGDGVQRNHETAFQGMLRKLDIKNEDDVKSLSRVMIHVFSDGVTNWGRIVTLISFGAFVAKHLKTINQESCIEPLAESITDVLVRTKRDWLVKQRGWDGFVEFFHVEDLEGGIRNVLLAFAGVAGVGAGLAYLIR

Consider `Cc1c(-c2c(-c3ccc(F)cc3)sc3ncnc(OC(Cc4ccccc4OCc4ccnc(OCCC(F)(F)F)n4)C(=O)O)c23)ccc(OCCN2CCN(C)CC2)c1Cl` [Example 62, (2R)-2-{[(5Sa)-5-{3-chloro-2-methyl-4-[2-(4-methylpiperazin-1-yl)ethoxy]phenyl}-6-(4-fluorophenyl)thieno[2,3-d]pyrimidin-4-yl]oxy}-3-(2-{[2-(3,3,3-trifluoropropoxy)pyrimidin-4-yl]methoxy}phenyl)propanoic acid], for which the IC50 is 3.9e-09 M on Mcl-1 protein (setting [3]) and 0.008 µM in assay [1] (MTT). The compound also came in with a PARP fold in assay [2] of 391.6 fold.

Consider `COc1ccc(-c2nccc(COc3ccccc3CC(Oc3ncnc4sc(-c5ccc(F)cc5)c(-c5ccc(OCCN6CCN(C)CC6)c(Cl)c5C)c34)C(=O)O)n2)c(C(F)(F)F)c1` [Example 729, (2R)-2-{[(5Sa)-5-{3-chloro-2-methyl-4-[2-(4-methylpiperazin-1-yl)ethoxy]phenyl}-6-(4-fluorophenyl)thieno[2,3-d]pyrimidin-4-yl]oxy}-3-[2-({2-[4-methoxy-2-(trifluoromethyl)phenyl]pyrimidin-4-yl}methoxy)phenyl]propanoic acid], for which the IC50 worked out at 1.24e-09 M at Mcl-1 protein (setting [4]) and 0.009 µM in assay [1] (MTT). In assay [2], the PARP fold stood at 221 fold.

Take `Cc1cc(-c2nccc(COc3ccccc3CC(Oc3ncnc4sc(-c5ccc(F)cc5)c(-c5ccc(OCCN6CCN(C)CC6)c(Cl)c5C)c34)C(=O)O)n2)ccn1` [Example 118, (2R)-2-{[(5Sa)-5-{3-chloro-2-methyl-4-[2-(4-methylpiperazin-1-yl)ethoxy]phenyl}-6-(4-fluorophenyl)thieno[2,3-d]pyrimidin-4-yl]oxy}-3-(2-{[2-(2-methylpyridin-4-yl)pyrimidin-4-yl]methoxy}phenyl)propanoic acid]: the IC50 turned out to be 5.5e-09 M at Mcl-1 protein (setting [3]) and 0.006 µM in assay [1] (MTT). Besides, the PARP fold in assay [2] is 159.8 fold.

Turning to `COc1ccccc1-c1nccc(COc2ccccc2CC(Oc2ncnc3sc(-c4ccc(F)cc4)c(-c4ccc(OCCN5CCN(C)CC5)c(Cl)c4Br)c23)C(=O)O)n1` [Example 742, (2R)-2-{[(5Sa)-5-{2-bromo-3-chloro-4-[2-(4-methylpiperazin-1-yl)ethoxy]phenyl}-6-(4-fluorophenyl)thieno[2,3-d]pyrimidin-4-yl]oxy}-3-(2-{[2-(2-methoxyphenyl)pyrimidin-4-yl]methoxy}phenyl)propanoic acid], the IC50 was found to be 9.48e-10 M on Mcl-1 protein (setting [4]) and 0.002 µM in assay [1] (MTT). The same compound showed a PARP fold in assay [2] of 267.2 fold.

In the case of `COc1ccccc1-c1nccc(COc2ccccc2CC(Oc2ncnc3sc(-c4ccc(OCc5ccncc5)cc4)c(-c4ccc(OCCN5CCN(C)CC5)c(Cl)c4C)c23)C(=O)O)n1` [Example 774, (2R)-2-[((5Sa)-5-{3-chloro-2-methyl-4-[2-(4-methylpiperazin-1-yl)ethoxy]phenyl}-6-[4-(pyridin-4-ylmethoxy)phenyl]thieno[2,3-d]pyrimidin-4-yl)oxy]-3-(2-{[2-(2-methoxyphenyl)pyrimidin-4-yl]methoxy}phenyl)propanoic acid], the IC50 at Mcl-1 protein (setting [4]) worked out at 9.48e-10 M; in assay [1] (MTT) it was 0.009 µM. In assay [2], this compound had a PARP fold of 104.8 fold.

`CCOC(=O)[C@@H](Cc1ccccc1OCc1ccnn1C(C)C)Oc1ncnc2sc(-c3ccc(F)o3)c(-c3ccc(OCCN4CCN(C)CC4)c(Cl)c3C)c12` [Example 623, ethyl (2R)-2-{[(5Sa)-5-{3-chloro-2-methyl-4-[2-(4-methylpiperazin-1-yl)ethoxy]phenyl}-6-(5-fluorofuran-2-yl)thieno[2,3-d]pyrimidin-4-yl]oxy}-3-(2-{[1-(propan-2-yl)-1H-pyrazol-5-yl]methoxy}phenyl)propanoate]: at Mcl-1 protein, the “percentage fluorescence polarisation inhibition, Mcl-1 FP” value was 67.8% @ 10 uM. Also, the PARP fold in assay [2] was 441.5 fold.

In the case of `COc1ccccc1-c1nccc(COc2ccccc2CC(Oc2ncnc3sc(-c4ccc(F)cc4)c(-c4ccc(OCCN5CCN(C)CC5)c(Cl)c4C)c23)C(=O)OCC(=O)N(C)C)n1` [Example 812, 2-(dimethylamino)-2-oxoethyl (2R)-2-{[(5Sa)-5-{3-chloro-2-methyl-4-[2-(4-methylpiperazin-1-yl)ethoxy]phenyl}-6-(4-fluorophenyl)thieno[2,3-d]pyrimidin-4-yl]oxy}-3-(2-{[2-(2-methoxyphenyl)pyrimidin-4-yl]methoxy}phenyl)propanoate], the IC50 stood at 6.51e-07 M on Mcl-1 protein (setting [5]) and 0.103 µM in assay [1] (cell viability). This compound had a PARP fold in assay [2] of 136 fold.

For `COCCOc1ccccc1CC(Oc1ncnc2sc(-c3ccco3)c(-c3ccc(OCCN4CCN(C)CC4)c(Cl)c3C)c12)C(=O)O` [Example 290, (2R)-2-{[(5Sa)-5-{3-chloro-2-methyl-4-[2-(4-methylpiperazin-1-yl)ethoxy]phenyl}-6-(furan-2-yl)thieno[2,3-d]pyrimidin-4-yl]oxy}-3-[2-(2-methoxyethoxy)phenyl]propanoic acid], the concentration for half-maximal inhibition (IC50) at Mcl-1 protein (setting [3]) came to 5.8e-09 M; in assay [1] (MTT) it was 0.097 µM. For the same compound, in assay [2], the PARP fold is 121 fold.

With `CCCc1nccc(COc2ccccc2CC(Oc2ncnc3sc(-c4ccc(F)cc4)c(-c4ccc(OCCN5CCN(C)CC5)c(Cl)c4C)c23)C(=O)O)n1` [Example 41, (2R)-2-{[(5Sa)-5-{3-chloro-2-methyl-4-[2-(4-methylpiperazin-1-yl)ethoxy]phenyl}-6-(4-fluorophenyl)thieno[2,3-d]pyrimidin-4-yl]oxy}-3-{2-[(2-propylpyrimidin-4-yl)methoxy]phenyl}propanoic acid], the concentration for half-maximal inhibition (IC50) at Mcl-1 protein (setting [3]) stood at 2.9e-09 M; in assay [1] (MTT), 0.007 µM. This compound also returned a PARP fold in assay [2] of 288.1 fold.

For the compound `CCOC(=O)[C@@H](Cc1ccccc1OCc1ccnc(OCC(F)(F)F)n1)Oc1ncnc2sc(-c3ccc(F)cc3)c(-c3ccc(OCCN4CCN(C)CC4)c(Cl)c3C)c12` [Example 638, ethyl (2R)-2-{[(5Sa)-5-{3-chloro-2-methyl-4-[2-(4-methylpiperazin-1-yl)ethoxy]phenyl}-6-(4-fluorophenyl)thieno[2,3-d]pyrimidin-4-yl]oxy}-3-(2-{[2-(2,2,2-trifluoroethoxy)pyrimidin-4-yl]methoxy}phenyl)propanoate], the “percentage fluorescence polarisation inhibition, Mcl-1 FP” value at Mcl-1 protein is 34.5% @ 10 uM. For the same compound, in assay [2], the PARP fold came out at 136.7 fold.

Take `CCOC(=O)C(Cc1ccccc1OCc1ccnc(-c2ccccc2OC)n1)Oc1ncnc2sc(-c3ccc(F)cc3)c(-c3ccc(OCCN(C)C)c(Cl)c3C)c12` [Example 756, Ethyl (2R)-2-{[(5Sa)-5-{3-chloro-4-[2-(dimethylamino)ethoxy]-2-methylphenyl}-6-(4-fluorophenyl)thieno[2,3-d]pyrimidin-4-yl]oxy}-3-(2-{[2-(2-methoxyphenyl)pyrimidin-4-yl]methoxy}phenyl)propanoate]: the IC50 at Mcl-1 protein (setting [4]) was 6.89e-07 M. Further, the PARP fold in assay [2] was 117 fold.

With `CCOC(=O)[C@@H](Cc1ccccc1OCc1ccnc(-c2ccccc2OC)n1)Oc1ncnc2sc(-c3ccc(F)cc3)c(-c3ccc(OCCN4CCN(C)CC4)c(Cl)c3C)c12` [Example 639, ethyl (2R)-2-{[(5Sa)-5-{3-chloro-2-methyl-4-[2-(4-methylpiperazin-1-yl)ethoxy]phenyl}-6-(4-fluorophenyl)thieno[2,3-d]pyrimidin-4-yl]oxy}-3-(2-{[2-(2-methoxyphenyl)pyrimidin-4-yl]methoxy}phenyl)propanoate], the “percentage fluorescence polarisation inhibition, Mcl-1 FP” value at Mcl-1 protein is listed as 66.25% @ 10 uM. This compound also displayed a PARP fold in assay [2] of 195.7 fold.

`CCOC(=O)C(Cc1ccccc1OCc1ccnc(-c2ccccc2F)n1)Oc1ncnc2sc(-c3ccc(F)cc3)c(-c3ccc(OCCN4CCN(CC)CC4)c(Cl)c3C)c12` [Example 790, ethyl (2R)-2-{[(5Sa)-5-{3-chloro-4-[2-(4-ethylpiperazin-1-yl)ethoxy]-2-methylphenyl}-6-(4-fluorophenyl)thieno[2,3-d]pyrimidin-4-yl]oxy}-3-(2-{[2-(2-fluorophenyl)pyrimidin-4-yl]methoxy}phenyl)propanoate]: on Mcl-1 protein (setting [4]), the 50% inhibitory concentration (IC50) turned out to be 1.91e-06 M. The same compound returned a PARP fold in assay [2] of 282.9 fold.

For `CCOC(=O)C(Cc1ccccc1OCc1ccnn1C(C)(C)C)Oc1ncnc2sc(-c3ccc(F)cc3)c(-c3ccc(OCCN(C)C)c(Cl)c3C)c12` [Example 794, ethyl (2R)-3-{2-[(1-tert-butyl-1H-pyrazol-5-yl)methoxy]phenyl}-2-{[(5Sa)-5-{3-chloro-4-[2-(dimethylamino)ethoxy]-2-methylphenyl}-6-(4-fluorophenyl)thieno[2,3-d]pyrimidin-4-yl]oxy}propanoate], at Mcl-1 protein (setting [5]), the IC50 came out at 5.35e-06 M. In addition, the PARP fold in assay [2] was 125.6 fold.
